Data reported in ChEMBL document CHEMBL3885861, “Open TG-GATES”.

Species: Rattus norvegicus
Test: Open TG-GATES - Regimen: Daily Repeat
Assay type: toxicity, organism-based, Sprague-Dawley
Set-up: regimen Daily Repeat, gender Male, age 6 weeks
Conditions: in vivo, po, 10 mg/kg, route gavage, dose level Low; for APTT / Bas / Eos / Fbg / Hb / Ht / Lym / MCH / MCHC / MCV / Mono / Neu / PT / Plat / RBC / Ret / WBC: tissue Blood; for KIDNEY_L / KIDNEY_R / KIDNEY_TOTAL: tissue Kidney; for LIVER: tissue Liver; for A/G / ALP / ALT / AST / BUN / CRE / Ca / Cl / DBIL / GLC / IP / K / LDH / Na / PL / RALB / TBIL / TC / TG / TP / gamma-GTP: tissue Plasma

Work on `O=C1CN(/N=C/c2ccc([N+](=O)[O-])o2)C(=O)N1` [NITROFURANTOIN] yielded a TERMINAL_BW (72 h, time 3 day) of 245.3 g, an APTT (72 h, time 3 day) of 18 s and a Bas (72 h, time 3 day) of 0%. The Eos (72 h, time 3 day) was 1%, the Fbg (72 h, time 3 day) was 213.8 mg/dL and the Hb (72 h, time 3 day) was 13.2 g/dL. For the same compound, the Ht (72 h, time 3 day) was 37.5%, the Lym (72 h, time 3 day) was 79.8% and the MCH (72 h, time 3 day) was 22.4 pg. The MCHC (72 h, time 3 day) was 35.3%, the MCV (72 h, time 3 day) was 63.3 fL and the Mono (72 h, time 3 day) was 2.6%. For the same compound, the Neu (72 h, time 3 day) was 15.2%, the PT (72 h, time 3 day) was 12.5 s and the Plat (72 h, time 3 day) was 122.9 x10_4/uL. For the same compound, the RBC (72 h, time 3 day) was 592.2 x10_4/ul, the Ret (72 h, time 3 day) was 6.6% and the WBC (72 h, time 3 day) was 108.7 x10_2/uL. It also gave a KIDNEY_L (72 h, time 3 day) of 1.1 g, a KIDNEY_R (72 h, time 3 day) of 1 g and a KIDNEY_TOTAL (72 h, time 3 day) of 2.1 g. It also gave an LIVER (72 h, time 3 day) of 11.5 g, an A/G (72 h, time 3 day) of 1.7 and an ALP (72 h, time 3 day) of 964.4 IU/L. It also gave an ALT (72 h, time 3 day) of 33.2 IU/L, an AST (72 h, time 3 day) of 68 IU/L and a BUN (72 h, time 3 day) of 13.8 mg/dL. The CRE (72 h, time 3 day) was 0.4 mg/dL, the Ca (72 h, time 3 day) was 10.6 mg/dL and the Cl (72 h, time 3 day) was 102.4 meq/L. For the same compound, the DBIL (72 h, time 3 day) was 0.096 mg/dL, the GLC (72 h, time 3 day) was 212.6 mg/dL and the IP (72 h, time 3 day) was 7.2 mg/dL. It also gave a K (72 h, time 3 day) of 3.9 meq/L, an LDH (72 h, time 3 day) of 200.2 IU/L and a Na (72 h, time 3 day) of 140 meq/L. For the same compound, the PL (72 h, time 3 day) was 134.4 mg/dL, the RALB (72 h, time 3 day) was 3.4 g/dL and the TBIL (72 h, time 3 day) was 0.1 mg/dL. The TC (72 h, time 3 day) was 65.6 mg/dL, the TG (72 h, time 3 day) was 99.8 mg/dL and the TP (72 h, time 3 day) was 5.5 g/dL. The gamma-GTP (72 h, time 3 day) was 1 IU/L, the TERMINAL_BW ([…], time 7 day) was 276.7 g and the TERMINAL_BW ([…], time 14 day) was 338.3 g. It also gave a TERMINAL_BW ([…], time 28 day) of 422 g, an APTT ([…], time 7 day) of 20.1 s and a Bas ([…], time 7 day) of 0%. The Eos ([…], time 7 day) was 1%, the Fbg ([…], time 7 day) was 228.8 mg/dL and the Hb ([…], time 7 day) was 13.9 g/dL. It also gave a Ht ([…], time 7 day) of 39.5%, a Lym ([…], time 7 day) of 79.2% and an MCH ([…], time 7 day) of 21.7 pg. It also gave an MCHC ([…], time 7 day) of 35.2%, an MCV ([…], time 7 day) of 61.9 fL and a Mono ([…], time 7 day) of 3%. It also gave a Neu ([…], time 7 day) of 16.4%, a PT ([…], time 7 day) of 12.6 s and a Plat ([…], time 7 day) of 124.7 x10_4/uL. It also gave an RBC ([…], time 7 day) of 639.4 x10_4/ul, a Ret ([…], time 7 day) of 6% and a WBC ([…], time 7 day) of 123.1 x10_2/uL. It also gave an APTT ([…], time 14 day) of 19.8 s, a Bas ([…], time 14 day) of 0% and an Eos ([…], time 14 day) of 1%. For the same compound, the Fbg ([…], time 14 day) was 223 mg/dL, the Hb ([…], time 14 day) was 14.3 g/dL and the Ht ([…], time 14 day) was 41.2%. The Lym ([…], time 14 day) was 80.6%, the MCH ([…], time 14 day) was 21 pg and the MCHC ([…], time 14 day) was 34.8%. For the same compound, the MCV ([…], time 14 day) was 60.3 fL, the Mono ([…], time 14 day) was 2.2% and the Neu ([…], time 14 day) was 15%. For the same compound, the PT ([…], time 14 day) was 12.2 s, the Plat ([…], time 14 day) was 114.6 x10_4/uL and the RBC ([…], time 14 day) was 683 x10_4/ul. The Ret ([…], time 14 day) was 4.3%, the WBC ([…], time 14 day) was 119.2 x10_2/uL and the APTT ([…], time 28 day) was 19.9 s. It also gave a Bas ([…], time 28 day) of 0%, an Eos ([…], time 28 day) of 1% and a Fbg ([…], time 28 day) of 220.4 mg/dL. For the same compound, the Hb ([…], time 28 day) was 15 g/dL, the Ht ([…], time 28 day) was 43.1% and the Lym ([…], time 28 day) was 83.8%. It also gave an MCH ([…], time 28 day) of 19.8 pg, an MCHC ([…], time 28 day) of 34.8% and an MCV ([…], time 28 day) of 56.8 fL. The Mono ([…], time 28 day) was 2.2%, the Neu ([…], time 28 day) was 12.2% and the PT ([…], time 28 day) was 12.7 s. For the same compound, the Plat ([…], time 28 day) was 99.8 x10_4/uL, the RBC ([…], time 28 day) was 759 x10_4/ul and the Ret ([…], time 28 day) was 2.6%. For the same compound, the WBC ([…], time 28 day) was 140.7 x10_2/uL, the KIDNEY_L ([…], time 7 day) was 1.1 g and the KIDNEY_R ([…], time 7 day) was 1.1 g. It also gave a KIDNEY_TOTAL ([…], time 7 day) of 2.3 g, a KIDNEY_L ([…], time 14 day) of 1.3 g and a KIDNEY_R ([…], time 14 day) of 1.3 g. It also gave a KIDNEY_TOTAL ([…], time 14 day) of 2.5 g, a KIDNEY_L ([…], time 28 day) of 1.5 g and a KIDNEY_R ([…], time 28 day) of 1.5 g. The KIDNEY_TOTAL ([…], time 28 day) was 2.9 g, the LIVER ([…], time 7 day) was 13.3 g and the LIVER ([…], time 14 day) was 15.1 g. It also gave an LIVER ([…], time 28 day) of 17.2 g, an A/G ([…], time 7 day) of 1.6 and an ALP ([…], time 7 day) of 916.8 IU/L. It also gave an ALT ([…], time 7 day) of 33.4 IU/L, an AST ([…], time 7 day) of 62.4 IU/L and a BUN ([…], time 7 day) of 15.8 mg/dL. For the same compound, the CRE ([…], time 7 day) was 0.4 mg/dL, the Ca ([…], time 7 day) was 11 mg/dL and the Cl ([…], time 7 day) was 100.6 meq/L. It also gave a DBIL ([…], time 7 day) of 0.1 mg/dL, a GLC ([…], time 7 day) of 205 mg/dL and an IP ([…], time 7 day) of 7.6 mg/dL. The K ([…], time 7 day) was 4.3 meq/L, the LDH ([…], time 7 day) was 201.2 IU/L and the Na ([…], time 7 day) was 140 meq/L. For the same compound, the PL ([…], time 7 day) was 156.8 mg/dL, the RALB ([…], time 7 day) was 3.5 g/dL and the TBIL ([…], time 7 day) was 0.2 mg/dL. For the same compound, the TC ([…], time 7 day) was 74.4 mg/dL, the TG ([…], time 7 day) was 142.4 mg/dL and the TP ([…], time 7 day) was 5.7 g/dL. For the same compound, the gamma-GTP ([…], time 7 day) was 1 IU/L, the A/G ([…], time 14 day) was 1.5 and the ALP ([…], time 14 day) was 781 IU/L. The ALT ([…], time 14 day) was 32.6 IU/L, the AST ([…], time 14 day) was 60.4 IU/L and the BUN ([…], time 14 day) was 17.6 mg/dL. The CRE ([…], time 14 day) was 0.5 mg/dL, the Ca ([…], time 14 day) was 10.7 mg/dL and the Cl ([…], time 14 day) was 102.6 meq/L. It also gave a DBIL ([…], time 14 day) of 0.1 mg/dL, a GLC ([…], time 14 day) of 208 mg/dL and an IP ([…], time 14 day) of 6.5 mg/dL. The K ([…], time 14 day) was 3.7 meq/L, the LDH ([…], time 14 day) was 209.8 IU/L and the Na ([…], time 14 day) was 140.4 meq/L. The PL ([…], time 14 day) was 160.6 mg/dL, the RALB ([…], time 14 day) was 3.6 g/dL and the TBIL ([…], time 14 day) was 0.2 mg/dL. It also gave a TC ([…], time 14 day) of 75 mg/dL, a TG ([…], time 14 day) of 149.6 mg/dL and a TP ([…], time 14 day) of 6.1 g/dL. It also gave a gamma-GTP ([…], time 14 day) of 1 IU/L, an A/G ([…], time 28 day) of 1.3 and an ALP ([…], time 28 day) of 736.4 IU/L. It also gave an ALT ([…], time 28 day) of 32.6 IU/L, an AST ([…], time 28 day) of 59.2 IU/L and a BUN ([…], time 28 day) of 16.6 mg/dL. The CRE ([…], time 28 day) was 0.5 mg/dL, the Ca ([…], time 28 day) was 10.4 mg/dL and the Cl ([…], time 28 day) was 102.4 meq/L. It also gave a DBIL ([…], time 28 day) of 0.098 mg/dL, a GLC ([…], time 28 day) of 224 mg/dL and an IP ([…], time 28 day) of 6.3 mg/dL. The K ([…], time 28 day) was 3.5 meq/L, the LDH ([…], time 28 day) was 137 IU/L and the Na ([…], time 28 day) was 139.6 meq/L. It also gave a PL ([…], time 28 day) of 140.8 mg/dL, an RALB ([…], time 28 day) of 3.4 g/dL and a TBIL ([…], time 28 day) of 0.2 mg/dL. It also gave a TC ([…], time 28 day) of 66.2 mg/dL, a TG ([…], time 28 day) of 104.6 mg/dL and a TP ([…], time 28 day) of 5.9 g/dL. For the same compound, the gamma-GTP ([…], time 28 day) was 1 IU/L.
